Laboratory results published in US4962109A, “Insecticidally and acaricidally active pyrimidine esters and intermediates therefor” (Imperial Chemical Industries PLC, priority 1985, dated 1990).

Tests used:
Assay type in all cases: in vivo
[1] = test system: Nephotettix cincticeps (green leaf hopper - nymphs); assay: Contact test on green leaf hopper nymphs (NC), Rice plant, mortality; conditions: 48 h, 500 ppm, contact, 2 days, read-out: NC grading of mortality
Procedure, shortened: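 Product dissolved in acetone, diluted in water with 0.01% wetting agent to 500, 250 or 100 ppm; nymphs and/or host rice plants treated. Mortality or knockdown assessed 1–3 days later, graded A (80-100%), B (50-79%), C (<50%).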

[2] = test system: Tetranychus urticae (spider mites - ova); assay: Contact test on spider mites - ova (TUe), French bean leaf, mortality; conditions: 144 h, 500 ppm, contact, 6 days, read-out: TUe grading of mortality
Procedure, shortened: (§1)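 Graded read-out: A 80-100%, B 50-79%, C below 50% mortality or knockdown, assessed usually 1-3 days post-treatment. Liquid preparations at 500, 250 or 100 ppm by weight, from acetone solution diluted in water with 0.01% wetting agent, applied to pests and/or their host plant or food medium.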

[3] = test system: Spodoptera exigua (lesser army worm - larvae); assay: Residual test on lesser army worm larvae (SP), Cotton leaf, mortality; conditions: 48 h, 500 ppm, residual, 2 days, read-out: SP grading of mortality
Procedure, shortened: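 Product dissolved in acetone and diluted in water with 0.01% wetting agent to 500, 250 or 100 ppm; larvae and/or cotton leaf host treated. Mortality or knockdown scored one to three days later and graded A (80-100%), B (50-79%) or C (<50%).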

[4] = test system: Blattella germanica (cockroach nymphs); assay: Contact test on cockroach nymphs (BG/C), Plastic pot, mortality; conditions: 48 h, 500 ppm, contact, 2 days, read-out: BG/C grading of mortality
Procedure, shortened: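 Cockroach nymphs and/or their medium were treated with aqueous preparations at 500, 250 or 100 ppm (acetone solution diluted in water with 0.01% Lissapol NX wetting agent). Mortality or knockdown was assessed typically 1–3 days later and graded A (80–100%), B (50–79%) or C (<50%).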

[5] = test system: Tetranychus urticae (spider mites - adult); assay: Contact test on spider mites - adult (TUa), French bean leaf, mortality; conditions: 72 h, 500 ppm, contact, 3 days, read-out: TUa grading of mortality
Procedure, shortened: as §1

[6] = test system: Myzus persicae (aphids); assay: Contact test on aphids (MP), Chinese Cabbage leaf, mortality; conditions: 72 h, 500 ppm, contact, 3 days, read-out: MP grading of mortality
Procedure, shortened: as §1

[7] = test system: Diabrotica balteata (rootworm larvae); assay: Residual test on rootworm larvae (DB), Filter paper/maize seed, mortality; conditions: 48 h, 500 ppm, residual, 2 days, read-out: DB grading of mortality
Procedure, shortened: as §1

[8] = test system: Musca domestica (houseflies - adults); assay: Contact test on houseflies - adults (MD), Cotton wool/sugar, mortality; conditions: 72 h, 500 ppm, contact, 3 days, read-out: MD grading of mortality
Procedure, shortened: as §1

[9] = test system: Heliothis virescens (tobacco budworm - larvae); assay: Residual test on tobacco budworm larvae (HV), Cotton leaf, mortality; conditions: 48 h, read-out: HV grading of mortality
Procedure, shortened: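 Product in acetone diluted with water containing 0.01% Lissapol NX, at 500, 250 or 100 ppm; pests and/or host medium (here cotton leaf) treated. Mortality scored one to three days later, graded A (80-100%), B (50-79%), C (<50%).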

[10] = test system: Musca domestica (houseflies - adults); assay: Knockdown test on houseflies - adults (MD/KD), Cotton wool/sugar; conditions: 500 ppm, 4 hours, read-out: MD/KD grading of knockdown
Procedure, shortened: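 Adult houseflies exposed to the compound at 500, 250 or 100 ppm in acetone/water with 0.01% wetting agent, on a cotton wool/sugar medium. Knockdown and mortality assessed, graded A (80-100%), B (50-79%) or C (<50%).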

Compound | mortality at 500 ppm [1] [%] | mortality at 500 ppm [2] [%] | mortality at 500 ppm [3] [%] | mortality at 500 ppm [4] [%] | mortality at 500 ppm [5] [%] | mortality at 500 ppm [6] [%] | mortality at 500 ppm [7] [%] | mortality at 500 ppm [8] [%] | mortality at 500 ppm [9] [%] | pest or weed control at 500 ppm [10] [%]
CCCc1c(F)c(F)c(COC(=O)C(c2cnc(C(C)(C)C)nc2)C(C)(C)C)c(F)c1F (racemic) [Compound 168, 4-(n-propyl)-2,3,5,6-tetrafluorobenzyl (RS)-2-[2-(1,1-dimethylethyl)pyrimidin-5-yl]-3,3-dimethylbutanoate] | 80 to 100 | 80 to 100 | 50 to 79 | < 50 | 80 to 100 | 80 to 100 | < 50 | < 50 | 50 to 79 | < 50
CSCc1c(F)c(F)c(COC(=O)C(c2cnc(C(C)(C)C)nc2)C(C)(C)C)c(F)c1F (racemic) [Compound 169, 4-(methylthiomethyl)-2,3,5,6-tetrafluorobenzyl (RS)-2-[2-(1,1-dimethylethyl)pyrimidin-5-yl]-3,3-dimethylbutanoate] | 80 to 100 | 80 to 100 | 80 to 100 | < 50 | 80 to 100 | 80 to 100 | < 50 | 80 to 100 | < 50 | 80 to 100
CCOC(=O)c1c(F)c(F)c(COC(=O)C(c2cnc(C(C)(C)C)nc2)C(C)(C)C)c(F)c1F (racemic) [Compound 170] | 50 to 79 | < 50 | 80 to 100 | < 50 | 80 to 100 | < 50 | < 50 | < 50 | < 50 | 50 to 79
CC(C)OC(=O)c1c(F)c(F)c(COC(=O)C(c2cnc(C(C)(C)C)nc2)C(C)(C)C)c(F)c1F (racemic) [Compound 171, 4-[(prop-2-yl)oxycarbonyl]-2,3,5,6-tetrafluorobenzyl (RS)-2-[2-(1,1-dimethylethyl)pyrimidin-5-yl]-3,3-dimethylbutanoate] | < 50 | < 50 | < 50 | < 50 | 80 to 100 | < 50 | < 50 | < 50 | < 50 | < 50
CC(C)(C)C(=O)OCc1c(F)c(F)c(COC(=O)C(c2cnc(C(C)(C)C)nc2)C(C)(C)C)c(F)c1F (racemic) [Compound 172, 4-[(2,2-dimethylpropionyl)oxymethyl]-2,3,5,6-tetrafluorobenzyl (RS)-2-[2-(1,1-dimethylethyl)pyrimidin-5-yl]-3,3-dimethylbutanoate] | < 50 | < 50 | < 50 | < 50 | 80 to 100 | 50 to 79 | < 50 | < 50 | < 50 | < 50
CC(C)C(=O)OCc1c(F)c(F)c(COC(=O)C(c2cnc(C(C)(C)C)nc2)C(C)(C)C)c(F)c1F (racemic) [Compound 173, 4-[(2-methylpropionyl)oxymethyl]-2,3,5,6-tetrafluorobenzyl (RS)-2-[2-(1,1-dimethylethyl)pyrimidin-5-yl]-3,3-dimethylbutanoate] | 80 to 100 | < 50 | 80 to 100 | < 50 | 80 to 100 | 80 to 100 | < 50 | < 50 | 80 to 100 | < 50
CC(C)SCc1c(F)c(F)c(COC(=O)C(c2cnc(C(C)(C)C)nc2)C(C)(C)C)c(F)c1F (racemic) [Compound 174] | 50 to 79 | < 50 | < 50 | < 50 | 80 to 100 | 80 to 100 | < 50 | < 50 | < 50 | < 50
CC(C)(C)SCc1c(F)c(F)c(COC(=O)C(c2cnc(C(C)(C)C)nc2)C(C)(C)C)c(F)c1F (racemic) [Compound 175, 4-[(1,1-dimethylethyl)thio]methyl-2,3,5,6-tetrafluorobenzyl (RS)-2-[2-(1,1-dimethylethyl)pyrimidin-5-yl]-3,3dimethylbutanoate] | < 50 | < 50 | < 50 | < 50 | 80 to 100 | < 50 | < 50 | < 50 | < 50 | < 50
CCN(CC)Cc1c(F)c(F)c(COC(=O)C(c2cnc(C(C)(C)C)nc2)C(C)(C)C)c(F)c1F (racemic) [Compound 176] | 80 to 100 | < 50 | 80 to 100 | < 50 | 80 to 100 | 80 to 100 | < 50 | 80 to 100 | 80 to 100 | 80 to 100
CC(C)(C)c1ncc(C(C(=O)OCc2c(F)c(F)c(CN3CCCCC3)c(F)c2F)C(C)(C)C)cn1 (racemic) [Compound 177, 4-[(piperidin-1-yl)methyl]-2,3,5,6-tetrafluorobenzyl (RS)-2-(2-(1,1-dimethylethyl)pyrimidin-5-yl)-3,3-dimethylbutanoate] | 80 to 100 | < 50 | 80 to 100 | < 50 | 80 to 100 | 80 to 100 | < 50 | < 50 | < 50 | 80 to 100
CC(C)=NOCc1c(F)c(F)c(COC(=O)C(c2cnc(C(C)(C)C)nc2)C(C)(C)C)c(F)c1F (racemic) [Compound 178, 4-(Prop-2-ylideneaminoxymethyl)-2,3,5,6-tetrafluorobenzyl (RS)-2-[2-(1,1-dimethylethyl)pyrimidin-5-yl]-3,3dimethylbutanoate] | 80 to 100 | < 50 | < 50 | < 50 | 80 to 100 | 80 to 100 | < 50 | < 50 | < 50 | < 50
CC(C)(C)c1ncc(C(C(=O)OCc2c(F)c(F)c(CC3CC3)c(F)c2F)C(C)(C)C)cn1 (racemic) [Compound 179, 4-(cyclopropylmethyl)-2,3,5,6-tetrafluorobenzyl (RS)-2-[2-(1,1-dimethylethyl)pyrimidin-5-yl]-3,3-dimethylbutanoate] | 80 to 100 | < 50 | < 50 | < 50 | 80 to 100 | 80 to 100 | < 50 | < 50 | < 50 | < 50
